From US3937838A, “Orally active bronchospasmolytic compounds and their preparation” (priority 1966, dated 1976)
Read-outs that look alike come from different tables or passages of the source.

Key:
[1] = test system: bronchospasm induced by histamine aerosol; test: Protecting effect against histamine aerosol in intact guinea pigs (Example 7c); type: in vivo, guinea pig; conditions: for ED50: Cavia porcellus, m ± s.e., read-out: ED50 (protecting 50 per cent of the animals for more than 4 minutes)
Experimental: The compounds KWD2109 and KWD2025 have been compared in preventing bronchospasm induced by histamine aerosol in guinea pigs.
The drug was injected intraperitoneally 15 minutes (Table 2) or administered orally 30 minutes (Table 3) before histamine treatment. The dose of the drugs protecting 50 per cent of the animals for more than 4 minutes is denoted "ED50". In untreated animals only 1-2 percent will withstand the histamine aerosol for more than 4 minutes.
To study the duration of the effect, 2 mg/kg was administered orally to intact guinea pigs at different time intervals before the histamine treatment. Two series each including eleven groups of six animals was studied. The groups were tested in histamine aerosol 10, 20, 30, 40, 50, 60, 120, 180, 240, 300 and 360 minutes after the administration of the compound. The per cent of animals in each group protected more than 4 minutes and more than 10 minutes was determined.

[2] = test system: isolated guinea pig auricle; test: Dual bath preparation, effect on left auricle (Example 8a)
Experimental: The left auricle was dissected out and mounted together with spirally-cut trachea from the same animal in a 100 ml bath in Kreb's solution (37°C.) well aereated with a mixture of oxygen (95%) and carbon dioxide (5%). The auricle was electrically stimulated with square wave pulses from a Techtronic Stimulator (voltage 2-4; duration: 10 m sec; frequency 1 per second). This is, in general, the same procedure described above in Example 5c.
Using the dual bath preparation, tests were made of the effect on the trachea and auricle of KWD2025 (of the present invention) and of the known drugs KWD2109 and epinephrine. The drug to be tested was added to the bath in the predetermined amount and allowed to act upon the organs for 10 minutes.

heart rate = test: Tests on anesthetized cat, heart rate with bronchospasmolytic effect (Example 8b); type: in vivo
Source text: The relative bronchospasmolytic and cardiovascular effects of compounds can be tested in the method of Konzett & Rossler (see Example 5b above). As has already been described, the test animal is force-ventilated and the effect of various compounds in controlling histamine-induced bronchoconstriction, as reflected by overflow of the forced ventilation in excess of lung capacity, is used as a measure of the bronchospasmolytic effect. Concurrently in the same animal, changes in heart rate and arterial mean pressure can be simultaneously recorded.
In carrying out this procedure, bronchoconstriction in the test animal is induced by injection of histamine. The ability of KWD2025 and KWD2109 to control the histamine-inducred bronchoconstriction is measured by injecting the test compound 3 minutes before injection of […], and before injection of histamine, the effect of the test compound on the heart rate is recorded.

[3] = test system: isolated guinea pig trachea; test: Bronchospasmolytic effect in vitro, isolated guinea pig trachea (Example 7a); conditions: Table 1, six experiments
Experimental: The trachea from a guinea pig was dissected out and spirally out. It was mounted in a water-jacketed bath (37°C.) in Kreb's solution and aerated with oxygen (95%) and carbon dioxide (5%). Pilocarpine (1 μg/ml) was added. The load was about 2 g and the relaxation was recorded by means of a Grass force displacement transducer and a Grass polygraph model 5. The compound KWD2109 was tested on six preparations in which epinephrine was used as reference.

[4] = test system: isolated guinea pig heart; test: Effect on isolated guinea pig heart, Langendorff (Example 7d)
Experimental: The isolated guinea pig heart was perfused according to Langendorff. The method used is described by Anden et al. (Acta. Pharmacol. et Toxicol. 21, 247, 1964). Contractions in the heart were recorded by means of a force displacement transducer and aa Grass polygraph Model 7. Epinephrine was used as reference. KWD2109 and KWD2025 were tested on the same preparation. The comparisons of effects were based on dose for 50 percent increase in chronotropic effect and 10 percent increase in inotropic effect.

Structure (SMILES): Oc1ccc(C(O)CNC2CCC2)cc1O (stereo not drawn) [KWD2109, 1-(3',4'-dihydroxyphenyl)-2-(cyclobutylamino)-ethanol]
- ED50 ([1]; ip, 0.25 h, i.p., 15 minutes before histamine-aerosol): 0.17 ± 0.02 mg/kg
- ED50 ([1]; po, 0.5 h, peroral, 30 minutes before histamine-aerosol): 0.55 ± 0.14 mg/kg
- protecting activity relative to KWD2025 ([1]; intraperitoneal): 3.5 times
- protecting activity relative to KWD2025 ([1]; oral): 3.1 times
- bronchospasmolytic activity relative to KWD2025 after intraperitoneal and oral administration ([1]; summary b256): about 3 times
- effect on auricle relative to epinephrine at doses with same effect on trachea ([2]; equi-effective doses on trachea): of the same order as that of epinephrine
- effect on force of contraction in auricle in concentrations relaxing the trachea ([2]; same bath): increased the force of contraction in the auricle in concentrations where it relaxed the trachea
- effect on heart rate at equal bronchospasmolytically effective doses (heart rate): more pronounced effect on the heart rate than did KWD2025
- bronchospasmolytic effect x epinephrine [3]: 8.6 ± 1.7 times
- therapeutic index, bronchospasmolytic effect over effect on the heart (inotropic) ([4]; KWD2025 given index 1.0): 0.083
- effect on force x epinephrine ([4]; dose for 10 percent increase in inotropic effect, Table 5): 5.5 ± 3.2
- effect on heart rate x epinephrine ([4]; dose for 50 percent increase in chronotropic effect, Table 4): 11.8 ± 6.5
